Format in all cases: cell-based
The target in test [1] is T1, Nuclear factor erythroid 2-related factor 2 (Homo sapiens) (UniProt Q16236).
T1 sequence (whole entry): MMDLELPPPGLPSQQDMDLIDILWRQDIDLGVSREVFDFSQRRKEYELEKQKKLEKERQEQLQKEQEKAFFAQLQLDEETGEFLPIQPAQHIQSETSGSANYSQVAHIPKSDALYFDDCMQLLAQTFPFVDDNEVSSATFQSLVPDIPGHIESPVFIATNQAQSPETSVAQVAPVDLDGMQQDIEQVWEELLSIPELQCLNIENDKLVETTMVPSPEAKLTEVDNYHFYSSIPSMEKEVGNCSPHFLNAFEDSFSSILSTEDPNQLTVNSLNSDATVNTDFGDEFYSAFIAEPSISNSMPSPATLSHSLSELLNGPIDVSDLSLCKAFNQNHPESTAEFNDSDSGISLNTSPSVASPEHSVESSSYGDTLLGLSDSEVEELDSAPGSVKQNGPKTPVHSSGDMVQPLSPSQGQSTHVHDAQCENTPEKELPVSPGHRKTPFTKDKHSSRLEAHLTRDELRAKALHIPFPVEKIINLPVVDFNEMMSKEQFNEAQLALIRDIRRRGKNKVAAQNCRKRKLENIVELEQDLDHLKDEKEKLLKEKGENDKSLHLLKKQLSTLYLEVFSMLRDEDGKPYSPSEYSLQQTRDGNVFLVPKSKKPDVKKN
Briefly: Induction of Nrf2-mediated ARE activity in human HepG2-ARE-C8 cells at 10 uM after 12 hrs by luciferase reporter gene assay relative to control. Background: In a reporter assay the amount or activity of a reporter protein is the signal.

Test [2] addresses T1, Nuclear factor erythroid 2-related factor 2 (Homo sapiens). Briefly: Induction of Nrf2-mediated ARE activity in human HepG2-ARE-C8 cells at 5 uM after 12 hrs by luciferase reporter gene assay relative to control.
For test [3] the target is unchanged. Briefly: Induction of Nrf2-mediated ARE activity in human HepG2-ARE-C8 cells at 1 uM after 12 hrs by luciferase reporter gene assay relative to control.
Test [4] has the same target. As to the kind of experiment: Induction of Nrf2-mediated ARE activity in human HepG2-ARE-C8 cells at 0.1 uM after 12 hrs by luciferase reporter gene assay relative to control.
Test [5] shares this target. Briefly: Induction of Nrf2-mediated ARE activity in human HepG2-ARE-C8 cells at 0.01 uM after 12 hrs by luciferase reporter gene assay relative to control.

For `COc1ccc2c(c1)CCN1C(=O)/C(=C/C(=O)c3ccccc3F)NCC21` (stereo not given), the fold change (FC) in test [1] was found to be 7.7; in test [2], 5.18; in test [3], 3.73; in test [4], 1.45; in test [5], 2.58.
For `COc1cccc(C(=O)/C=C2\NCC3c4cc(OC)ccc4CCN3C2=O)c1` (stereo not given) the same measures were 1.59, 1.36, 1.24, 1.21 and 1.08.
As to `COc1ccc2c(c1)C1CN/C(=C\C(=O)c3cccc(Cl)c3)C(=O)N1CC2` (stereo not given), the fold change (FC) in test [1] turned out to be 7.28; in test [2], 6.49; in test [3] it was 4.53; in test [4] it was 2.28; in test [5] it was 2.26.
For `COc1ccc(C(=O)/C=C2\NCC3c4ccccc4CCN3C2=O)cc1` (stereo not given) the same measures were 5.07, 3.3, 2.74, 2.3 and 1.15.
With `O=C(/C=C1\NCC2c3ccccc3CCN2C1=O)c1cccc(Cl)c1` (stereo not given), the fold change (FC) is 16.5 in test [1]; 14 in test [2]; 10.7 in test [3]; 3.77 in test [4]; 1.94 in test [5].
As to `COc1ccc2c(c1)C1CN/C(=C\C(=O)c3cccc([N+](=O)[O-])c3)C(=O)N1CC2` (stereo not given), the fold change (FC) in test [1] worked out at 6.5; in test [2] it was 5.76; in test [3], 3.08; in test [4], 1.75; in test [5], 1.45.
For `COc1cccc2c1CCN1C(=O)/C(=C/C(=O)c3ccccc3)NCC21` (stereo not given), the fold change (FC) in test [1] amounted to 6.93; in test [2], 6.89; in test [3], 3.57; in test [4] it was 3.53; in test [5], 1.
As to `O=C(/C=C1\NCC2c3ccccc3CCN2C1=O)c1ccc(Cl)cc1` (stereo not given), the fold change (FC) came to 4 in test [1]; 3.57 in test [2]; 2.61 in test [3]; 2.33 in test [4]; 1.3 in test [5].
Regarding `COc1cc2c(cc1OC)C1CN/C(=C\C(=O)c3cccc(F)c3)C(=O)N1CC2` (stereo not given), the fold change (FC) in test [1] amounted to 1.09; in test [2] it was 1.68; in test [3], 1.05; in test [4], 0.93; in test [5], 2.31.
For `Cc1ccc(C(=O)/C=C2\NCC3c4ccccc4CCN3C2=O)cc1` (stereo not given) the same measures were 5.22, 4.42, 3.25, 3.3 and 2.01.
For `COc1ccc2c(c1)C1CN/C(=C\C(=O)c3ccc(F)cc3)C(=O)N1CC2` (stereo not given) the same measures were 2.48, 1.82, 1.74, 1.35 and 1.29.
For `COc1cccc(C(=O)/C=C2\NCC3c4cc(OC)c(OC)cc4CCN3C2=O)c1` (stereo not given) the same measures were 1.06, 1.11, 0.95, 1.18 and 1.45.
`O=C(/C=C1\NCC2c3ccccc3CCN2C1=O)c1ccccc1F` (stereo not given): the fold change (FC) was found to be 16.9 in test [1]; 16.5 in test [2]; 8.85 in test [3]; 3.64 in test [4]; 2.5 in test [5].
For `COc1ccc2c(c1)CCN1C(=O)/C(=C/C(=O)c3ccccc3)NCC21` (stereo not given), the fold change (FC) in test [1] was found to be 5.36; in test [2] it was 8.18; in test [3], 3.8; in test [4], 1.7; in test [5], 0.65.
On the same counts, the results for `O=C(/C=C1\NCC2c3ccccc3CCN2C1=O)c1ccccc1Cl` (stereo not given) are 6.04, 5.46, 2.77, 2.19 and 1.19.
On the same counts, the results for `O=C(/C=C1\NCC2c3ccccc3CCN2C1=O)c1cccc(Br)c1` (stereo not given) are 15.7, 12, 8.97, 3.4 and 3.1.
Consider `O=C(/C=C1\NCC2c3ccccc3CCN2C1=O)c1cccc([N+](=O)[O-])c1` (stereo not given), for which the fold change (FC) in test [1] was 18.5; in test [2] it was 14.5; in test [3], 7.22; in test [4], 3.52; in test [5], 3.28.
On the same counts, the results for `COc1cccc2c1CCN1C(=O)/C(=C/C(=O)c3cccc(F)c3)NCC21` (stereo not given) are 3.7, 4.85, 4.02, 1.43 and 0.79.
On the same counts, the results for `COc1ccc2c(c1)C1CN/C(=C\C(=O)c3ccccc3)C(=O)N1CC2` (stereo not given) are 13, 10.4, 3.5, 1.93 and 1.35.
For `COc1ccc(C(=O)/C=C2\NCC3c4ccccc4CCN3C2=O)cc1OC` (stereo not given) the same measures were 2.15, 2.11, 1.93, 1.77 and 1.52.
For the compound `COc1cc2c(cc1OC)C1CN/C(=C\C(=O)c3cccc([N+](=O)[O-])c3)C(=O)N1CC2` (stereo not given), the fold change (FC) in test [1] was found to be 2.51; in test [2], 1.44; in test [3] it was 1.03; in test [4] it was 1.08; in test [5], 1.31.
On to `COc1cc2c(cc1OC)C1CN/C(=C\C(=O)c3ccc(F)cc3)C(=O)N1CC2` (stereo not given), for which the fold change (FC) in test [1] came to 1.25; in test [2], 1.82; in test [3], 2.7; in test [4] it was 1.42; in test [5], 1.25.
Consider `O=C(/C=C1\NCC2c3ccccc3CCN2C1=O)c1ccc(F)cc1` (stereo not given), for which the fold change (FC) in test [1] stood at 14; in test [2] it was 12.3; in test [3], 8; in test [4], 4.39; in test [5] it was 2.58.
For `COc1ccc2c(c1)CCN1C(=O)/C(=C/C(=O)c3cccc(F)c3)NCC21` (stereo not given) the same measures were 6.66, 5.65, 3.96, 5.19 and 1.83.
`O=C(/C=C1\NCC2c3ccccc3CCN2C1=O)c1ccc([N+](=O)[O-])cc1` (stereo not given): the fold change (FC) came to 3.81 in test [1]; 2.43 in test [2]; 1.76 in test [3]; 2.34 in test [4]; 1.2 in test [5].

These data come from ChEMBL document CHEMBL2429758, “3-aroylmethylene-2,3,6,7-tetrahydro-1H-pyrazino[2,1-a]isoquinolin-4(11bH)-ones as potent Nrf2/ARE inducers in human cancer cells and AOM-DSS treated mice” (J Med Chem, 2013).
